How the values were obtained:
[1] = test system: CCRF-CEM; assay: Leukemia cell growth inhibition, CellTiter-Glo (Example 1); format: cell-based; conditions: Homo sapiens, ALL (T-cell), 72 hours
Method: (§1) Various human leukemia cells were grown to the logarithmic growth phase and seeded into 24-well plates. […] Treated cells were further incubated for 72 hours and then were examined for cell proliferation. Cell proliferation was determined using the CellTiter-Glo Luminescence Cell Viability assay (Promega Corporation, Madison, Wis.) according to the manufacturer's protocol. The calculated inhibition rate was determined with the following formula: Inhibition rate (%)=(1−Luminescence of experimental group/Luminescence of control group)×100. IC50 is the calculated concentration of a compound needed to inhibit half of the maximum cell growth (equivalent to cell growth in control group) based on the corresponding dose-response curve under the described experimental conditions.

[2] = test system: MOLT-4; assay: as above; format: cell-based; conditions: Homo sapiens; MOLT-4, ALL (T-cell); 72 hours
Method: as §1

[3] = test system: K562 cells; assay: Subcutaneous K562 (CML) tumor growth in SCID mice (Example 6); format: in vivo; conditions: for Average body weight, End point / Average body weight, Initial / Tumor size / Tumor weight: x ± s; for Average body weight, Initial: initial (before treatment)
Method: Male Severe Combined Immunodeficiency (SCID) mice that were 4-6 weeks old were used in the experiment. The mice were fed under specific pathogen free (SPF) conditions. Food and water were available to the mice at will. A suspension of 8×10^6 chronic myelogenous leukemia K562 cells (0.2 mL) was inoculated subcutaneously into the right back of the SCID mice.
The general conditions of the mice and the growth of the transplanted tumor were monitored. […] The control group received an intraperitoneal injection (IP) of 0.2 mL solvent (20% DMSO, 80% of 20% w/v (2-hydroxypropyl)-β-cyclodextrin made in PBS). […] The YT30 treated groups received either intraperitoneal injection of 50 mg/kg/day of YT30 (0.2 mL in volume) suspended in solvent (20% DMSO, 80% of 20% w/v (2-hydroxypropyl)-β-cyclodextrin made in PBS) or oral gavage of 90 mg/kg/day YT30 in solvent (Cremophor RH40:TW80:PEG400 (2:1:1)). Frequency of the administration was once per day and the experiment lasted 16 days after initiation of the treatment.
The body weights of the mice were recorded prior to the start of treatment and twice every week thereafter. Each mouse of every group was monitored daily for any other symptoms of side effects including change in behavior, activity or posture, areas of redness and swelling, and food and water withdrawal. Caliper measurements of the longest perpendicular tumor diameters were performed every 2 days to estimate the tumor volume; the following formula: 4π/3×(width/2)^2×(length/2) was used to calculate the three-dimensional volume of an ellipse. The tumor inhibition rate was calculated according to tumor volume: Tumor inhibition rate by size (%)=(Tumor volume of the control group−Tumor volume of the treated group)/Tumor volume of the control group×100. The SCID mice were euthanized 2 hours after the final injection and the subcutaneous tumor nodules were taken out intact and weighed. The tumor inhibition rate was calculated again according to tumor weight: Tumor inhibition rate by weight (%)=(Tumor weight of the control group−Tumor weight of the treated group)/Tumor weight of the control group×100.

[4] = test system: U266; assay: Leukemia cell growth inhibition, CellTiter-Glo (Example 1); format: cell-based; conditions: Homo sapiens, U-266; U266, Multiple myeloma; 72 hours
Method: as §1

[5] = test system: Nalm-6 cells; assay: Survival of BALB/c nude mice with Nalm-6 acute B cell lymphoblastic leukemia (Example 2); format: in vivo
Method: BALB/c nu/nu nude mice were 4 to 5 weeks old with an average weight of 22.4±1.03 grams. The mice were raised under specific pathogen-free (SPF) conditions and had access to food and water freely. Cyclophosphamide at about 130 mg/kg per day was administrated with intraperitoneal (IP) injection for 2 days. Twenty-four hours later, a suspension of 3.5×10^6 or 5×10^6 Nalm-6 cells (0.2 mL) were injected through tail vein of each BALB/c nude mouse. Five days later, the mice were randomly divided into a YT30 treated group (n=5) and a solvent control group (n=5).
Mice in the YT30 treated group were intraperitoneally injected with 200 μL of YT30 (50 mg/kg) once a day, for 5 days a week, and for 3 or 4 weeks. The mice in the solvent control group were intraperitoneally injected with the same volume of solvent (20% DMSO, 80% of 20% w/v (2-hydroxypropyl)-β-cyclodextrin in PBS), and were on the same treatment schedule as the YT30 treated group. The body weights of the mice were recorded prior to the start of the treatment and at least twice a week thereafter. The dosages were adjusted according to the body weight to conform to the 50 mg/kg/day treatment plan. Each mouse of every group was also monitored daily for any other symptoms of side effects including change in behavior, activity or posture, areas of redness and swelling, and food and water withdrawal. […] Dates of death were recorded.

[6] = YT30 50 mg/kg i.p. × 16 days, SCID mice, K562 tumor
[7] = YT30 90 mg/kg p.o. × 16 days, SCID mice, K562 tumor

## Nc1ccccc1NC(=O)CCCCCC(=O)Nc1cccc(Br)c1 [YT30]
[1]
  IC50: 1530 nM
[2]
  IC50: 1130 nM
[3]; [6]
  Body weight change: −8.67%
  Tumor growth inhibition by size: 44.07%
  Tumor growth inhibition by weight: 40.76%
  Average body weight, End point: 16.75 ± 1.57 g
  Average body weight, Initial: 18.34 ± 0.73 g
  Tumor size: 1741.11 ± 1218.90 mm^3
  Tumor weight: 2.16 ± 1.86 g
[3]; [7]
  Body weight change: −5.30%
  Tumor growth inhibition by size: 41.77%
  Tumor growth inhibition by weight: 33.17%
  Average body weight, End point: 17.70 ± 2.03 g
  Average body weight, Initial: 18.69 ± 1.36 g
  Tumor size: 1812.71 ± 581.68 mm^3
  Tumor weight: 2.44 ± 0.92 g
[3]; intraperitoneal 50 mg/kg/day, 16 days of treatment
  Tumor growth inhibition by weight: 40.76%
[3]; oral gavage 90 mg/kg/day, 16 days of treatment
  Tumor growth inhibition by weight: 33.17%
[4]
  IC50: 8290 nM
[5]; IP 50 mg/kg qd for 5 days/week, 3 weeks, 5 × 10^6 Nalm-6 cells, 50 mg/kg
  Average life span after inoculation for IP 50 mg/KG group: 48.8 ± 9.7 days
[5]; IP 50 mg/kg, 4 weeks, 3.5 × 10^6 Nalm-6 cells, euthanized 341 days after treatment start
  Mice that appeared to be cured: three out of five

Source: US20150374646A1, “TREATMENT OF CANCER AND OTHER CONDITIONS USING A TRANSCRIPTION FACTOR MODULATOR” (C & C BIOPHARMA, LLC, priority 2013, published 2015)
